Values of other authors as cited in patent US20260115176A1, “ALLOSTERIC MODULATORS OF CANNABINOID RECEPTORS AND METHODS OF TREATING NEUROPATHIC PAIN” (The Board of Trustees of the Leland Stanford Junior …, priority 2020, published 2026).

Test system: rodent model of neuropathic pain
Details: background statement

Cc1ccc2c(C(C[N+](=O)[O-])c3cccs3)c(-c3ccccc3)[nH]c2c1 (centres unmarked) [ZCZ-011]
efficacy in rodent model of neuropathic pain: could treat a rodent model of neuropathic pain
psychoactive or hypothermic effects: without psychoactive or hypothermic effects
